Measured values published in publication PMC10254649, “Design, Synthesis, and Biological Evaluation of Potent and Selective Inhibitors of Ataxia Telangiectasia Mutated and Rad3-Related (ATR) Kinase for the Efficient Treatment of Cancer” (Molecules, 2023).
“And” between values parts separate entries of the source, which are not always exact repeats. Identical values can stand only once. Like-named read-outs stand apart in the source and are kept apart here.

Columns and labels:
[1] = test system: p-ATR(Thr1989) and p-CHK1(Ser345); experiment: Western blot of ATR/CHK1 signaling in HU-treated LoVo cells; format: cell-based, human; details: LoVo cells treated with HU (hydroxyurea)
Protocol: (§1) LoVo cells with a density of 1 × 10^6 were inoculated in a small cell culture dish at a single density for 24 h and then treated with the specified concentration of 5% dimethyl sulfoxide or compound at different times. The cells were washed with cold PBS and lysed with RIPA buffer (Beyotime, Shanghai, China) containing protease inhibitors (Beyotime, Shanghai, China) and phosphatase inhibitors (Beyotime, Shanghai, China). After lysis of the total cell solution on ice for 60 min, the lysate was centrifuged (12,000 rpm, 4 °C, 20 min); The total protein concentrations obtained were determined using the BCA kit (Beyotime, Shanghai, China). A proper 6 × loading buffer was added before use, and the samples were denatured by boiling. Then, 30–100 μg of protein was loaded onto a 4–12% SDS-PAGE gel and then transferred to the PVDF membrane (Millipore). The membrane was occluded for 1 h, incubated overnight with primary antibody at 4 °C, followed by washing 3 times with Tris-buffered saline and Tween 20 (TBST) for 10 min. After incubation with a second antibody with horseradish peroxidase for 60 min at room temperature, the membrane was washed 3 times for 10 min with TBST. Finally, blotting was performed with an enhanced chemiluminescence assay kit (KeyGEN Biotech, Nanjing, China). The software ImageJ was used to quantify the percentage degradation of proteins. […]

[2] = test system: LoVo cells; experiment: Wound healing migration assay; format: cell-based, human; details: 48 h
Protocol: LoVo cells in the logarithmic phase were collected and seeded in 6-well plates and cultured overnight. A straight line was drawn across the cell with a sterile pipette tip. A culture medium containing different concentrations of ZH-12 or 0.1% DMSO (10% FBS) was added. Scratch widths were recorded under an inverted microscope (Olympus, Waltham, MA, USA) at 0 h and 48 h.

[3] = test system: p-ATR(Thr1989) and p-CHK1(Ser345); experiment: Western blot of ATR/CHK1 signaling in LoVo xenograft tumors; format: in vivo, Balb/c nude mice; details: LoVo xenograft tumors, 50, 25 and 12.5 mg/kg
Protocol: as §1, with “The membrane was occluded for 1 h, incubated overnight with primary antibody at 4 °C, followed by washing 3 times with Tris-buffered saline and Tween 20 (TBST) for 10 min. After incubation with a second antibody with horseradish peroxidase for 60 min at room temperature, the membrane was washed 3 times for 10 min with TBST. Finally, blotting was performed with an enhanced chemiluminescence assay kit (KeyGEN Biotech, Nanjing, China).” left out
Balb/c nude mice (18–22 g, female, 4 weeks old) were purchased from Hangzhou Medical College (Hangzhou, China). […] Tumor size and animal weight were measured every 3 days. Tumor volume was calculated as tumor volume (cm^3) = (length × width^2)/2. […] The results were obtained from 5 test mice (mean ± SD) and calculated using GraphPad 8.0 software.

[4] = test system: LoVo cells; experiment: Annexin V-FITC/PI apoptosis assay by flow cytometry; format: cell-based, human; details: 1 μM
Protocol: The percentage of apoptotic cells was determined by the Annexin V-FITC/PI double staining kit (KeyGEN Biotech, Nanjing, China). According to the manufacturer’s instructions, LoVo cells were stained with Annexin V-FITC and PI. The signal of the FITC and PI was recorded by BD FACSCelesta Flow Cytometer (BD FACSCelesta, Becton, Dickinson and Company) and the FlowJo software.

[5] = test system: LoVo cells; experiment: CCK-8 cell proliferation assay, LoVo; format: cell-based; details: Homo sapiens, CCK-8, 72 h, ATM-deficient cell line, three independent experiments, read-out: IC50 ± SD, LoVo
Protocol: (§2) A549, HCT116, NCI-H23, and LoVo cells were purchased from the Cell Resources Center of Shanghai Academy of Life Sciences, Shanghai, China. A549 cells were cultured in McCoy’s5A medium supplemented with 10% FBS (KeyGEN Biotech, Nanjing, China) and 1% penicillin/streptomycin (Gibco, 15070-063). HCT116 cells were cultured in IMDM medium supplemented with 10% FBS (KeyGEN Biotech, Nanjing, China) and 1% penicillin/streptomycin (Gibco, 15070-063). NCI-H23 cells were cultured in RPMI 1640 medium supplemented with 10% FBS (KeyGEN Biotech, Nanjing, China) and 1% penicillin/streptomycin (Gibco, 15070-063). LoVo cells were cultured in F12K medium supplemented with 10% FBS (KeyGEN Biotech, Nanjing, China) and 1% penicillin/streptomycin (Gibco, 15070-063). All cells were cultured in an incubator at 37 °C under a 5% CO2 atmosphere.
(§3) For the assay, 3000/well cells were planted into 96-well plates for 24 h and then treated with the indicated doses of drugs or controls for 72 h. Following the manufacturer’s instructions, cell proliferation/survival was measured using the CCK-8 (KeyGEN Biotech, Nanjing, China) assay and plotted via GraphPad 8.0.

[6] = test system: 207 kinases; experiment: Kinase panel selectivity screen at 1 μM; format: biochemical, human; details: single concentration of 1 μM, duplicate
[7] = test system: LoVo xenografts; experiment: LoVo tumor xenograft mouse model, antitumor efficacy and tolerability; format: in vivo; details: for tumor growth inhibition (TGI): days 1-18, single agent
Protocol: Balb/c nude mice (18–22 g, female, 4 weeks old) were purchased from Hangzhou Medical College (Hangzhou, China). All mice were inoculated subcutaneously in the right flank with 5 × 10^6 LoVo cells to initiate tumor growth. When the mean tumor volume reached approximately 100 mm^3, all mice were randomly divided into 8 groups (n = 5 per group) based on body weight and volume. […] Cisplatin was administered twice a week at the indicated doses. Tumor size and animal weight were measured every 3 days. Tumor volume was calculated as tumor volume (cm^3) = (length × width^2)/2. Tumor inhibition rate (%) = (1 − mean tumor weight in the treatment group/mean tumor weight in the control group) × 100%. The results were obtained from 5 test mice (mean ± SD) and calculated using GraphPad 8.0 software.

[8] = test system: A549 cells; experiment: CCK-8 cell proliferation assay, A549; format: cell-based; details: Homo sapiens, CCK-8, 72 h, ATM-normal cell line, three independent experiments, read-out: IC50 ± SD, A549
Protocol: as §2, §3

[9] = test system: LoVo cells; experiment: Comet assay for DNA damage; format: cell-based, human; details: 72 h
Protocol: The comet assay was performed following the protocol of the manufacturer of the Comet Assay Kit (KeyGEN Biotech, Nanjing, China). […] After 3 days of treatment, the cells (1 × 10^4/mL) were collected, mixed with low-melting agarose at a ratio of 1:10 (v/v), layered on slides, lysed in lysis buffer at 4 °C for 2 h, and then lysed in alkaline lysis solution at room temperature for 30 min. Following electrophoresis, the cells were stained with PI and observed with an […] biomicroscope (Olympus BX53, Tokyo, Japan). Three images were randomly captured per slide.

[10] = test system: LoVo cells; experiment: Colony formation assay; format: cell-based, human; details: 14 days
From the text: LoVo cells at a concentration of 800 cells/well were exposed to various concentrations of ZH-12 for 14 days. After 14 days of treatment, the colonies were fixed with 4% paraformaldehyde, stained with 0.1% crystal violet, and imaged using an upright biological microscope (Olympus BX53, Tokyo, Japan). The experiments were repeated at least three times and plotted via GraphPad 8.0.

[11] = molecular target: ATR (Homo sapiens, UniProt Q13535); experiment: In vitro inhibitory activity against the ATR enzyme; format: biochemical
Sequence of ATR (Q13535 whole entry): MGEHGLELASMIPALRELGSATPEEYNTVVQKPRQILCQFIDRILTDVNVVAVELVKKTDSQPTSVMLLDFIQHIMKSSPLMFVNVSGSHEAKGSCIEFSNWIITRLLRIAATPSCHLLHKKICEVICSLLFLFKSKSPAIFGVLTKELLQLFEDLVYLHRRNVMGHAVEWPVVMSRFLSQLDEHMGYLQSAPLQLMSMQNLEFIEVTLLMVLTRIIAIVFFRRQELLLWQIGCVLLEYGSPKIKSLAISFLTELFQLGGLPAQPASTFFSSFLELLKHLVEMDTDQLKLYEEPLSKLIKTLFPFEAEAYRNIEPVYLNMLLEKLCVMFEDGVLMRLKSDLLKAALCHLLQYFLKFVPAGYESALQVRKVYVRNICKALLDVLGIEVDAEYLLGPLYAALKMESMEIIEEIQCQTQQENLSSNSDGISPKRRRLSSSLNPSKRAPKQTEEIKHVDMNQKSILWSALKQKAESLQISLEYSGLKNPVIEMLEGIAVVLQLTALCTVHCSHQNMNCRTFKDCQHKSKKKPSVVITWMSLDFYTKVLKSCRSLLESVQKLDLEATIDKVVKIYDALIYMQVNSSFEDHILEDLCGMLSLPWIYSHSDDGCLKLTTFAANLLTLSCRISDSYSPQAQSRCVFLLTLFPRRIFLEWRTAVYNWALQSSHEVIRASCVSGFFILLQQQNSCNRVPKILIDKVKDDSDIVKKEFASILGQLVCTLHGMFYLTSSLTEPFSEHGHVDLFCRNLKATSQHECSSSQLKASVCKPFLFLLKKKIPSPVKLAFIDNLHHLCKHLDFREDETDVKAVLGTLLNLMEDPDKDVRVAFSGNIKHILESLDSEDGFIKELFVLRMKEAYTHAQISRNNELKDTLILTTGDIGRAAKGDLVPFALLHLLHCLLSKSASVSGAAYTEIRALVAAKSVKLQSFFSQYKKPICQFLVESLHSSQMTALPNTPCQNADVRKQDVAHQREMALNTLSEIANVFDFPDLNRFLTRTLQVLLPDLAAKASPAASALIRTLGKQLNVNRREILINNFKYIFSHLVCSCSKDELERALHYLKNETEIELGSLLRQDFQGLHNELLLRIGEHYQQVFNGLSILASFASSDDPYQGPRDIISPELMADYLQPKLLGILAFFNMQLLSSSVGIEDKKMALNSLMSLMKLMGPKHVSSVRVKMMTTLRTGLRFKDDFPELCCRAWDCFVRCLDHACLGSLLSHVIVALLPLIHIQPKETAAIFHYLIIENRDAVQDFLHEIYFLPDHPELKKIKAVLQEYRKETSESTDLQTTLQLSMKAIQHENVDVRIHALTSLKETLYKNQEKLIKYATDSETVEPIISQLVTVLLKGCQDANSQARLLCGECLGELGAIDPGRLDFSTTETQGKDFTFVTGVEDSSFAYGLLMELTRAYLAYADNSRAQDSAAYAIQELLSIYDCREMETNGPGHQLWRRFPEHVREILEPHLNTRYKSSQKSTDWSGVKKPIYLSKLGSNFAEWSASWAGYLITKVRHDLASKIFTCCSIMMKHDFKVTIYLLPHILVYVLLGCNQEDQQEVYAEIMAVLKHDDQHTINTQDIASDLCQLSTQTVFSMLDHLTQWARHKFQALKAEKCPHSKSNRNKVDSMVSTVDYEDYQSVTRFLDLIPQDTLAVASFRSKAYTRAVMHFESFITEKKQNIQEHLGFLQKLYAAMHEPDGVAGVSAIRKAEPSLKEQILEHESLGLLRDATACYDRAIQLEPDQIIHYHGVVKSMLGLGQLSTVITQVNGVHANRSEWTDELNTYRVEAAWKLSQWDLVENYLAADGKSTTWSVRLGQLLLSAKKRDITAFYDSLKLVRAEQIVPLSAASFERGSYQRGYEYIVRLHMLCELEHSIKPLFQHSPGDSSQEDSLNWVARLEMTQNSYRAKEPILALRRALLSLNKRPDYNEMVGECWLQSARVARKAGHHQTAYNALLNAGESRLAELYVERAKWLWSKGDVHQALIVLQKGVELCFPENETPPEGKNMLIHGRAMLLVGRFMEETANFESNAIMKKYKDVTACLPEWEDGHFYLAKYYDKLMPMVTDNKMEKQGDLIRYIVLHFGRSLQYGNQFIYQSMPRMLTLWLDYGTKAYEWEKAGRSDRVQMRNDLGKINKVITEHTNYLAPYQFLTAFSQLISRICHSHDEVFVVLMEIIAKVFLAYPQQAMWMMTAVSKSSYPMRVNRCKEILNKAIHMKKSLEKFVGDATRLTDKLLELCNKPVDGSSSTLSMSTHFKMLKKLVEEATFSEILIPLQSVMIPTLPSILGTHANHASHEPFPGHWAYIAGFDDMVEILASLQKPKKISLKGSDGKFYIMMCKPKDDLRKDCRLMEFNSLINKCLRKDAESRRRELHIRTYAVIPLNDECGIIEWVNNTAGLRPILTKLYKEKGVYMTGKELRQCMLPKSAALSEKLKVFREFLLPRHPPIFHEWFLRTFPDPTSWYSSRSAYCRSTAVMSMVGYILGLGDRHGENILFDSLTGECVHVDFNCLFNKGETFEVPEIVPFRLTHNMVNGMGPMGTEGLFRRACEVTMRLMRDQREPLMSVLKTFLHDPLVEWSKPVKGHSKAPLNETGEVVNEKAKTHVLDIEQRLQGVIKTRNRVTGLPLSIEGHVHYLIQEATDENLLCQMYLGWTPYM
Sequence of ATR (Q8WXE1 whole entry partner): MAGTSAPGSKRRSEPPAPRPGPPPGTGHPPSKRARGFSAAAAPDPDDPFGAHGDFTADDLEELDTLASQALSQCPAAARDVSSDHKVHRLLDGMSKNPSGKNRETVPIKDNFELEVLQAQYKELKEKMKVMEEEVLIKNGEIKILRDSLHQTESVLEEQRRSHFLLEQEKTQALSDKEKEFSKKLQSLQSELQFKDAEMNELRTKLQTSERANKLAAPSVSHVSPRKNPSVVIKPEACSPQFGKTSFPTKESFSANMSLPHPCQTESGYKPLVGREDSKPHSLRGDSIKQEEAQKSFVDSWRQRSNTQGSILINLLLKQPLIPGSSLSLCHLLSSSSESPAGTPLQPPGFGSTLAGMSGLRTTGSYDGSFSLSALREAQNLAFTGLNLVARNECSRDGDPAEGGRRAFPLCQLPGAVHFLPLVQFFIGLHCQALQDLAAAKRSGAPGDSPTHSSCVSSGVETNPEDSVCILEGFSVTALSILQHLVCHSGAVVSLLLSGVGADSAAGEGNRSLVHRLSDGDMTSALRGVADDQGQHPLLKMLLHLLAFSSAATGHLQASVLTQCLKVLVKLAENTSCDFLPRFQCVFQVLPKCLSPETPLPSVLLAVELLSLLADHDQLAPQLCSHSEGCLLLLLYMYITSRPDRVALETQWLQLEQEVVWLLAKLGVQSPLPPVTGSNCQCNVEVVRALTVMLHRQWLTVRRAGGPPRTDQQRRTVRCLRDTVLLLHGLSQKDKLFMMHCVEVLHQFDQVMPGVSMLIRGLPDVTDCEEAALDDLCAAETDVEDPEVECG

[12] = test system: NCI-H23 cells; experiment: CCK-8 cell proliferation assay, NCI-H23; format: cell-based; details: Homo sapiens, CCK-8, 72 h, ATM-deficient cell line, three independent experiments, read-out: IC50 ± SD, NCI-H23
Protocol: as §2, §3

[13] = test system: HCT116 cells; experiment: CCK-8 cell proliferation assay, HCT116; format: cell-based; details: Homo sapiens, HCT-116; CCK-8, 72 h, ATM-normal cell line, three independent experiments; read-out: IC50 ± SD, HCT116
Protocol: as §2, §3

For `C[C@@H]1COCCN1c1nc(-c2cccc3[nH]ccc23)nc2c1CCN(C(=O)CC#N)C2` [ZH-12, (R)-3-(2-(1H-indol-4-yl)-4-(3-methylmorpholino)-5,8-dihydropyrido[3,4-d]pyrimidin-7(6H)-yl)-3-oxopropanenitrile], the “phosphorylation of ATR and CHK1, Western blot” value [1] was “inhibited the phosphorylation of ATR and its downstream kinase CHK1 in a dose-dependent manner”, the “cell migration, wound healing” value [2] was “inhibited LoVo cell migration in a dose-dependent manner” and the “ATR phosphorylation (p-ATR Thr1989) and CHK1 phosphorylation (p-CHK1 Ser345) in tumors” value [3] was “significantly inhibited ATR phosphorylation”. For the same compound, the “apoptosis effect (percentage of apoptotic cells)” value [4] was 33.8%, the IC50 [5] was 0.29 ± 0.01 µM and the “inhibitory activities against 207 kinases” value [6] was “weak or no inhibitory activities against 207 kinases”. For the same compound, the “tumor growth inhibition (TGI)” value ([7]; 12.5 mg/kg, intraperitoneally, twice daily) was 27.0%, the “tumor growth inhibition (TGI)” value ([7]; 25 mg/kg twice daily, AZD6738 orally, ZH-12 intraperitoneally) was 39.5% and the “tumor growth inhibition (TGI)” value ([7]; 50 mg/kg, intraperitoneally, twice daily) was 53.7% and 53.8%. For the same compound, the “body weight loss or toxicity” value ([7]; ZH-12 12.5, 25 and 50 mg/kg BID for 18 days, single agent) was “No significant body weight loss or toxicity was observed”, the IC50 [8] was 4.74 ± 0.27 µM and the “DNA damage, comet assay” value [9] was “induced significant amounts of DNA damage dose-dependently”. For the same compound, the “tail intensity, comet assay” value ([9]; 0.5 µM) was “comparable tail intensity to AZD6738”, the “colony formation (cell proliferation)” value [10] was “inhibited cell proliferation dose-dependently” and the IC50 ([11]; mean ± SD of two independent experiments, read-out: ATR IC50 ± SD) was 0.00681 ± 4e-05 µM. The IC50 ([11]; read-out: ATR IC50) was 0.0068 µM, the IC50 [12] was 0.77 ± 0.13 µM and the IC50 [13] was 1.61 ± 0.08 µM.
